In PubChem BioAssay (NCI):
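96-well plates; 48 h exposure; 5 concentrations. Endpoints by linear interpolation between flanking doses. Not reached: highest tested concentration assigned. GI50: concentration for 50% inhibition of growth. Definition used: TGI = concentration required for complete inhibition of growth.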

Experiments:
Assay in all cases: inhibition of tumour cell growth, NCI panel, 48 h
[1] = system: XF 498 CNS
[2] = system: HOP-18 NSCLC
[3] = system: DMS 114 small cell lung
[4] = system: DMS 273 small cell lung
[5] = system: LXFL 529 NSCLC
[6] = system: DLD-1 colon
[7] = system: M19-MEL melanoma
[8] = system: MDA-N
[9] = system: RXF-631 renal

In the case of `O=S1(=O)C[C@@H](O)[C@H](O)CS1`, the TGI [1] is reported as greater than 100 µM, the TGI [2] is reported as greater than 100 µM and the TGI [3] is reported as greater than 100 µM. The TGI [4] was greater than 100 µM, the TGI [5] was greater than 100 µM and the TGI [6] was greater than 100 µM. For the same molecule, the TGI [7] was greater than 100 µM.
`CC(=O)Nc1ccc(C2[C@H]3C(=O)N(c4ccc(Cc5ccc(N6C(=O)[C@@H]7ON(c8ccccc8)C(c8ccc(NC(C)=O)cc8)[C@@H]7C6=O)cc5)cc4)C(=O)[C@H]3ON2c2ccccc2)cc1` (stereo not given in full) was tested, and the TGI [2] was greater than 100 µM, the TGI [3] was greater than 100 µM and the TGI [4] was greater than 100 µM. For the same molecule, the TGI [5] was greater than 100 µM, the TGI [6] was greater than 100 µM and the TGI [7] was greater than 100 µM.
In the case of `CN(C)c1ccc2c3c(c(=O)oc2c1)CCC3`, the TGI [8] is reported as greater than 100 µM.
In the case of `COC(=O)c1ccc(N=NN(C)CO)cc1`, the TGI [1] is reported as 9.97 µM, the TGI [3] is reported as greater than 100 µM and the TGI [4] is reported as greater than 100 µM. The TGI [5] was greater than 100 µM, the TGI [6] was greater than 100 µM and the TGI [7] was greater than 100 µM.
With `CC(=O)/C=C/c1ccc(C2CC(C)=Nc3c(ccc4c3C(=O)c3ccccc3C4=O)N2)cc1` (stereo not given) the TGI [1] was greater than 100 µM, the TGI [2] was greater than 100 µM and the TGI [3] was greater than 100 µM. The TGI [4] was greater than 100 µM, the TGI [6] was greater than 100 µM and the TGI [7] was greater than 100 µM.
`CN(c1ccccc1)C(c1ccccc1)C(O)c1ccccc1` (stereo not given) was tested, and the TGI [2] was 33.2 µM, the TGI [3] was 47.5 µM and the TGI [4] was 34 µM. For the same molecule, the TGI [5] was 43.4 µM, the TGI [9] was 43.2 µM and the TGI [6] was 47.5 µM. For the same molecule, the TGI [7] was 42.4 µM.
Work on `COc1ccc(/C=C2/C[N+](C)(C)C/C(=C/c3ccc(OC)cc3)C2=O)cc1` yielded a TGI [1] greater than 100 µM, a TGI [2] greater than 100 µM and a TGI [3] greater than 69.3 µM. It also gave a TGI [4] of 51.3 µM, a TGI [5] greater than 100 µM and a TGI [6] greater than 100 µM. The TGI [7] was 69.4 µM.
`CC(C)(O)C1OCC(C2CCC3(C)C4=CCC5C(C)(C)C(O)CCC5(C)C4CCC23C)CC1O` (stereo not given) gave a TGI [8] of 41.8 µM.
For `COC(=O)c1c(CC#N)cccc1CC#N`, the TGI [1] was greater than 100 µM, the TGI [3] was greater than 100 µM and the TGI [4] was greater than 100 µM. For the same molecule, the TGI [5] was greater than 100 µM, the TGI [9] was greater than 100 µM and the TGI [6] was greater than 100 µM. For the same molecule, the TGI [7] was greater than 100 µM.
With `CCOC(=O)CC1=CSC2=NCCN12` the TGI [1] was greater than 100 µM, the TGI [2] was greater than 100 µM and the TGI [3] was greater than 100 µM. For the same molecule, the TGI [4] was greater than 100 µM, the TGI [5] was greater than 100 µM and the TGI [9] was greater than 100 µM. For the same molecule, the TGI [6] was greater than 100 µM and the TGI [7] was greater than 100 µM.
For `Cn1c(=O)c2[nH]c(CS(=O)(=O)Cc3nc4c([nH]3)c(=O)n(C)c(=O)n4C)nc2n(C)c1=O`, the TGI [8] was greater than 100 µM.
`N.N.NC(CS)C(=O)[O-].NC(CS)C(=O)[O-].[Pt+4]` (stereo not given) gave a GI50 [2] greater than 50 µM, a TGI [2] greater than 50 µM and a GI50 [4] greater than 50 µM. For the same molecule, the TGI [4] was greater than 50 µM, the GI50 [5] was greater than 50 µM and the TGI [5] was greater than 50 µM. The GI50 [6] was greater than 50 µM and the TGI [6] was greater than 50 µM.
Molecule `CC(=O)OC(C)(C)/C=C/C(=O)[C@](C)(O)[C@H]1[C@H](O)C[C@@]2(C)[C@@H]3CC=C4[C@@H](C[C@H](O)C(=O)C4(C)C)[C@]3(C)C(=O)C[C@]12C` has a TGI [8] of 2.39 µM.
For `C=C1C(=O)OC2CC3(CO3)C3C(O)C(O)CC3(C)CC12` (stereo not given), the TGI [8] was 81.6 µM.
With `O=c1cc2ccccc2nn1-c1ccccc1Cl` the TGI [1] was 77.5 µM, the TGI [2] was greater than 100 µM and the TGI [3] was greater than 100 µM. It also gave a TGI [4] greater than 100 µM, a TGI [6] greater than 100 µM and a TGI [7] greater than 100 µM.
In the case of `O=C1C(=O)c2ccccc2C(O)=C1C(CCc1ccccc1)C1=C(O)c2ccccc2C(=O)C1=O`, the TGI [8] is reported as 34.3 µM.
`CS(=O)c1ccc(COP(N)(=O)N(CCCl)CCCl)cc1` (stereo not given) gave a TGI [1] greater than 100 µM, a TGI [3] greater than 100 µM and a TGI [4] greater than 100 µM. The TGI [5] was greater than 100 µM, the TGI [6] was greater than 100 µM and the TGI [7] was greater than 100 µM.
For `CCOC(CN=c1nc(N(C)C)ss1)OCC`, the TGI [1] was 47.1 µM, the TGI [2] was greater than 100 µM and the TGI [3] was 32.9 µM. For the same molecule, the TGI [8] was 24.8 µM, the TGI [4] was greater than 67.9 µM and the TGI [5] was 20.5 µM. The TGI [9] was 32.5 µM, the TGI [6] was greater than 50.8 µM and the TGI [7] was 19.1 µM.
Work on `C=C1CC[C@@H]2C(C)(C)CCC[C@@]2(C)[C@@H]1Cc1cc(O)ccc1O` yielded a TGI [2] of 30 µM, a TGI [3] of 4.1 µM and a TGI [4] of 19.4 µM. The TGI [5] was 6.68 µM, the TGI [6] was 18.1 µM and the TGI [7] was 11 µM.
`O=C(O)C12C3CCCC1C2CC3` (stereo not given) gave a TGI [1] greater than 100 µM, a TGI [2] greater than 100 µM and a TGI [3] greater than 100 µM. For the same molecule, the TGI [5] was greater than 100 µM, the TGI [9] was greater than 100 µM and the TGI [6] was greater than 100 µM. For the same molecule, the TGI [7] was greater than 100 µM.
Work on `CC1NOC(=O)C1N=Nc1ccccc1Cl` (stereo not given) yielded a TGI [1] greater than 100 µM, a TGI [2] greater than 100 µM and a TGI [3] greater than 100 µM. The TGI [5] was greater than 100 µM, the TGI [9] was greater than 100 µM and the TGI [6] was greater than 100 µM. It also gave a TGI [7] of 60.4 µM.
In the case of `O=C(O)c1cc2c(cn1)[nH]c1ccccc12`, the TGI [2] is reported as greater than 100 µM, the TGI [3] is reported as greater than 100 µM and the TGI [4] is reported as greater than 100 µM. For the same molecule, the TGI [5] was greater than 100 µM, the TGI [6] was greater than 100 µM and the TGI [7] was greater than 100 µM.
With `CC(=O)OCC1OC(n2c(=O)n(-c3ccccc3)c(=O)c3ccccc32)C(OC(C)=O)C(OC(C)=O)C1OC(C)=O` (stereo not given) the TGI [2] was greater than 100 µM, the TGI [3] was greater than 100 µM and the TGI [4] was greater than 100 µM. For the same molecule, the TGI [5] was greater than 100 µM, the TGI [9] was greater than 100 µM and the TGI [6] was greater than 100 µM. The TGI [7] was greater than 100 µM.
`CCOC(=O)C1C(=O)c2ccccc2CN1Cc1ccccc1` (stereo not given) was tested, and the TGI [1] was greater than 100 µM, the TGI [2] was greater than 100 µM and the TGI [3] was greater than 100 µM. The TGI [4] was greater than 100 µM, the TGI [5] was greater than 100 µM and the TGI [9] was greater than 100 µM. For the same molecule, the TGI [6] was greater than 100 µM and the TGI [7] was greater than 100 µM.
`O=C1C(=O)N(c2ccc(Cl)c(Cl)c2)C(=O)C(=O)C1c1nc2ccccc2o1` showed a TGI [1] greater than 100 µM, a TGI [4] greater than 100 µM and a TGI [5] greater than 100 µM. The TGI [9] was greater than 100 µM, the TGI [6] was greater than 100 µM and the TGI [7] was greater than 100 µM.
Work on `COc1ccc2ccc([Se]c3ccc4ccc(OC)cc4c3)cc2c1` yielded a TGI [1] greater than 100 µM, a TGI [2] greater than 100 µM and a TGI [3] greater than 100 µM. For the same molecule, the TGI [4] was greater than 100 µM, the TGI [5] was greater than 100 µM and the TGI [6] was greater than 100 µM. It also gave a TGI [7] greater than 100 µM.
`COC(=O)Nc1nc2ccccc2c(=O)[nH]1` showed a TGI [8] of 50.8 µM.
In the case of `CC1=Cc2cc3[n-]c(cc4nc(cc5[n-]c(cc1n2)cc5C)C(C)=C4CCC(=O)O)c(CCC(=O)O)c3C.[Pd+2]`, the GI50 [1] is reported as 14.2 µM, the TGI [1] is reported as 31.5 µM and the GI50 [2] is reported as 15.8 µM. For the same molecule, the TGI [2] was 30.6 µM, the GI50 [3] was 3.18 µM and the TGI [3] was 11.2 µM. For the same molecule, the GI50 [8] was greater than 100 µM, the TGI [8] was greater than 100 µM and the GI50 [4] was 12 µM. It also gave a TGI [4] of 32.7 µM, a GI50 [5] of 2.86 µM and a TGI [5] of 11.1 µM. The GI50 [6] was 14.5 µM, the TGI [6] was 35.8 µM and the GI50 [7] was 3.64 µM. For the same molecule, the TGI [7] was 20.5 µM.
`Cc1c2cc[nH]c(=O)c2cc2c(=O)c3cnccc3[nH]c12` was tested, and the TGI [2] was greater than 100 µM, the TGI [3] was greater than 100 µM and the TGI [4] was greater than 100 µM. For the same molecule, the TGI [5] was greater than 100 µM, the TGI [6] was greater than 100 µM and the TGI [7] was greater than 100 µM.
In the case of `CC(C(=O)Oc1ccc2ccccc2c1-c1c(O)ccc2ccccc12)c1ccccc1` (stereo not given), the TGI [1] is reported as 27.3 µM, the TGI [3] is reported as 29.6 µM and the TGI [5] is reported as 27.1 µM. The TGI [9] was 33.7 µM and the TGI [7] was 30.6 µM.
With `C[C@H]1CCC/C=C/[C@@H]2C[C@H](O)C[C@H]2[C@H](O)[C@@H](S(=O)CCN(C)C)CC(=O)O1` (stereo not given in full) the GI50 [8] was 0.228 µM and the TGI [8] was greater than 100 µM.
`CC1(C)OCC(CO)(Nc2nc(N3CC3)nc(N3CC3)n2)CO1` showed a TGI [1] of 29.3 µM, a TGI [2] greater than 87.6 µM and a TGI [3] of 27.2 µM. The TGI [8] was 27.9 µM, the TGI [4] was 25.8 µM and the TGI [5] was greater than 100 µM. It also gave a TGI [6] greater than 93 µM and a TGI [7] of 34.4 µM.
Molecule `COC(=O)C(Nc1ccc(OC)cc1)c1ccccc1` (stereo not given) has a TGI [8] greater than 100 µM.
In the case of `CCOC(=O)C(C)c1cc(C2(C)OCCO2)c(C)o1` (stereo not given), the TGI [1] is reported as greater than 100 µM, the TGI [2] is reported as greater than 100 µM and the TGI [3] is reported as greater than 100 µM. For the same molecule, the TGI [4] was greater than 100 µM, the TGI [5] was greater than 100 µM and the TGI [9] was greater than 100 µM. The TGI [6] was greater than 100 µM and the TGI [7] was greater than 100 µM.
`COc1c(O)ccc2c1CN1CCc3cc4c(cc3C1C2)OCO4` (stereo not given) was tested, and the TGI [8] was greater than 80.8 µM.
For `COC(=O)c1nc(NC#N)[nH]c(=O)c1C`, the TGI [2] was greater than 100 µM, the TGI [3] was greater than 100 µM and the TGI [4] was greater than 100 µM. The TGI [5] was greater than 100 µM, the TGI [9] was greater than 100 µM and the TGI [6] was greater than 100 µM. The TGI [7] was greater than 100 µM.
`CC(=O)N1c2ccccc2Sc2cc(C(O)(C(F)(F)F)C(F)(F)F)ccc21` was tested, and the TGI [8] was greater than 10 µM.
`O=C1OC2(c3ccccc3Oc3ccccc32)c2ccccc21` showed a TGI [2] greater than 100 µM, a TGI [3] greater than 100 µM and a TGI [4] greater than 100 µM. It also gave a TGI [5] greater than 100 µM, a TGI [6] greater than 100 µM and a TGI [7] greater than 100 µM.
